Source: PubChem BioAssay (NCI)
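Dose response: 5 concentrations. Exposure: 48 h. Format: 96-well plates. Endpoint: linear interpolation; highest concentration if not reached. TGI is the concentration that stops growth completely.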

Assays:
Experiment in all cases: NCI tumour cell line growth inhibition, 48 h
DMS 273 small cell lung = system: DMS 273 small cell lung
SNB-78 CNS = system: SNB-78 CNS
K-562 leukemia = system: K-562 leukemia
XF 498 CNS = system: XF 498 CNS
HT29 colon = system: HT29 colon
LXFL 529 NSCLC = system: LXFL 529 NSCLC
HCT-116 colon = system: HCT-116 colon
M19-MEL melanoma = system: M19-MEL melanoma
KM20L2 colon = system: KM20L2 colon
786-0 renal = system: 786-0 renal
RXF-631 renal = system: RXF-631 renal
HOP-18 NSCLC = system: HOP-18 NSCLC
DLD-1 colon = system: DLD-1 colon
DMS 114 small cell lung = system: DMS 114 small cell lung
LOX IMVI melanoma = system: LOX IMVI melanoma

SMILES | TGI (DMS 273 small cell lung) | TGI (SNB-78 CNS) | TGI (K-562 leukemia) | TGI (XF 498 CNS) | TGI (HT29 colon) | TGI (LXFL 529 NSCLC) | TGI (HCT-116 colon) | TGI (M19-MEL melanoma) | TGI (KM20L2 colon) | TGI (786-0 renal) | TGI (RXF-631 renal) | TGI (HOP-18 NSCLC) | TGI (DLD-1 colon) | TGI (DMS 114 small cell lung) | TGI (LOX IMVI melanoma)
Cc1cc(Cl)ccc1NC(=O)/C(=N\NC(C)(C)C)C(C#N)c1nc(-c2ccc([N+](=O)[O-])cc2)cs1 (stereo not given) | > 100 µM | > 100 µM | > 100 µM | > 100 µM | > 100 µM | > 100 µM | > 100 µM | > 100 µM | > 100 µM | > 100 µM | > 100 µM | > 100 µM | > 100 µM | > 100 µM | > 100 µM
CC(C)C1=Cc2ccc3c(c2C(=O)C1=O)CCCC3 | 13.6 µM | 11.9 µM | 14.1 µM | 5.53 µM | 25.1 µM | 2.52 µM | 5.39 µM | 8.59 µM | 42.7 µM | 6.02 µM | 25.1 µM | 8.96 µM | 3.31 µM | 3.61 µM | 25.6 µM
CN(C)CC1(C)CC/C(=C\c2ccc(Cl)cc2)C1=O (stereo not given) | 50.7 µM | > 100 µM | > 100 µM | > 100 µM | > 100 µM | 40.8 µM | > 100 µM | > 100 µM | 35.7 µM | > 100 µM |  | > 100 µM | 85.7 µM | 56.2 µM | 82.1 µM
CC(=O)OCC12CC(CC1OC(C)=O)c1ccccc12 (stereo not given) | > 100 µM |  | > 100 µM |  | > 100 µM | > 100 µM | > 100 µM | > 100 µM | > 100 µM | > 100 µM | > 100 µM | > 100 µM |  | > 100 µM | > 100 µM
O=C(CCN1CCCCC1)Nc1ccc2c(c1)C(=O)c1ccc(NC(=O)CCN3CCCCC3)cc1C2=O | 3.87 µM | 29.8 µM | 7.64 µM |  | 9.99 µM | 4.64 µM | 3.2 µM | > 100 µM | 33.2 µM | 3.8 µM |  | 30.7 µM | 15 µM | 34.7 µM | 3.43 µM
COC(=O)C(Cc1nc2ccc(Cl)cc2[nH]c1=O)C(=O)C(=O)Nc1cc(C)ccc1C (stereo not given) | > 100 µM | > 100 µM | > 100 µM | > 100 µM | > 100 µM | > 100 µM | > 100 µM | > 100 µM | > 100 µM | > 100 µM | > 100 µM | > 100 µM | > 100 µM | > 100 µM | > 100 µM
COc1ccc(OC2(c3cc(OC)ccc3OC)OC(=O)c3ccccc32)cc1 (stereo not given) | > 100 µM | > 100 µM | > 100 µM |  | > 100 µM | > 100 µM | > 100 µM | > 100 µM | > 100 µM | > 100 µM | > 100 µM | > 100 µM | > 100 µM | > 100 µM | > 100 µM
Cc1cc(N(CCC#N)CCC#N)ccc1/C=C1N=C(/C=C\c2ccccc2)N(NC(=O)CC(=O)Nc2ccccc2Cl)C\1=O |  |  | > 100 µM |  | > 100 µM | > 100 µM | > 100 µM | > 100 µM | > 100 µM | > 100 µM | > 100 µM | > 100 µM | > 100 µM | > 100 µM | > 100 µM
